In patent US20140073694A1, “CYSTAMINE ANALOGUES FOR THE TREATMENT OF PARKINSON'S DISEASE” (UNIVERSITE LAVAL, priority 2011, published 2014):

Tested on: 6-OHDA lesioned mice
Assay: Unilateral striatal 6-OHDA mouse model, neurorescue experiment
Format: in vivo, C57BL/6 mice
Settings: 10 mg/kg daily for 14 days from 3 days post-lesion
Experimental: Young adult (9-week old, 25 grams) male C57BL/6 mice were purchased from Charles River Laboratories (Montréal, QC, Canada). Animals were housed 4 per cage under standard conditions with free access to food and water, randomized and handled under the same conditions by one investigator. All experiments were performed in accordance with the Canadian Council on Animal Care and were approved by the Institutional Committee of the Centre Hospitalier de l'Université Laval (CHUL). Throughout the experiment, the health status of all mice included in the study was closely monitored for weight loss or other signs of health-related issues. All efforts were made to minimize animal pain and discomfort.
This protocol was based on the unilateral stereotaxic intra-striatal injection of 6-hydroxydopamine (6-OHDA). Intrastriatal administration of 6-OHDA creates a progressive and retrograde degenerative changes in DA neurons of the substantia nigra (Bjorklund et al., 1997; Costantini et al., 2001). Mice were anaesthetized using isoflurane and placed onto a stereotactic frame adapted for mice. 6-OHDA was dissolved at a concentration of 2 μg/μl in 0.9% saline and 0.02% ascorbic acid and 2 μl was injected in the right striatum at a rate of 0.5 μl/min. The needle was left in place for 3 min after the injection before retraction. The injection was performed using an Hamilton syringe according to the stereotaxic co-ordinates: AP: +0.04 cm, ML: −0.18 cm, DV: −0.31 cm (corresponding to the atlas of Allan P. 2008).
To serve as controls, other mice were subjected to the same surgical procedures, but only 2 μl of solvent (0.9% saline and 0.02% ascorbic acid) was injected in the same coordinates. […]
The effects of cystamine on the 6-OHDA toxicity were studied in the following experimental groups: Group I, Sham+Saline; Group II, 6-OHDA+Saline; Group III; Sham+Cystamine; Group IV, 6-OHDA+Cystamine. In total, 40 mice (n=10 per group) were utilized for each experiment, monitored daily for weight variation, and ultimately sacrificed by perfusion 24 hrs after the last cystamine (or vehicle) injection. […]
Catecholamine quantification by HPLC, TH immunohistochemistry and in situ hybridization for Nurr1 and DAT were conducted as described in Example 1.
Levels of autoradiographic labelling were quantified by computerized densitometry. […] Optical density of the autoradiograms was translated in μCi/g of tissue using ^14C radioactivity standards (ARC 146-^14C standards, American Radiolabelled Chemicals Inc., St. Louis, Mo.). Nurr1 and DAT mRNA levels were measured in the substantia nigra compacta (SNc) using similar antero-posterior levels for all sections. […]

Compound: NCCSSCCN [cystamine, Cystamine]
- DAT mRNA levels in the SNpc (densitometry): same pattern as observed for the TH staining
- Nurr1 mRNA levels in the SNpc (densitometry): same pattern as observed for the TH staining
- striatal DA content by HPLC (vs control mice): significantly decreased levels of DA only in 6-OHDA mice treated with saline
- decrease in the total number of TH-positive neurons in the SNpc (6-OHDA+cystamine vs sham+cystamine): 27%
